Laboratory results taken from PMC9578445, “Association of respiratory failure with inhibition of NaV1.6 in the phrenic nerve” (Channels, 2022).

How the values were obtained:
[1] = molecular target: (Homo sapiens, UniProt Q12809); assay: Global Counterscreen MK499 binding
Excerpt: (§1) Supplement KCHL_A_2122309_SM6747.docx, table 1 | column: SSI-5; SSI-3; SSI-4; SSI-1; SSI-6

hERG = hERG (Homo sapiens, UniProt Q12809); assay: Functional Ion Channel Panel hERG; assay type: biochemical; conditions: read-out: hERG %inh
hERG, sequence (Q12809 whole entry): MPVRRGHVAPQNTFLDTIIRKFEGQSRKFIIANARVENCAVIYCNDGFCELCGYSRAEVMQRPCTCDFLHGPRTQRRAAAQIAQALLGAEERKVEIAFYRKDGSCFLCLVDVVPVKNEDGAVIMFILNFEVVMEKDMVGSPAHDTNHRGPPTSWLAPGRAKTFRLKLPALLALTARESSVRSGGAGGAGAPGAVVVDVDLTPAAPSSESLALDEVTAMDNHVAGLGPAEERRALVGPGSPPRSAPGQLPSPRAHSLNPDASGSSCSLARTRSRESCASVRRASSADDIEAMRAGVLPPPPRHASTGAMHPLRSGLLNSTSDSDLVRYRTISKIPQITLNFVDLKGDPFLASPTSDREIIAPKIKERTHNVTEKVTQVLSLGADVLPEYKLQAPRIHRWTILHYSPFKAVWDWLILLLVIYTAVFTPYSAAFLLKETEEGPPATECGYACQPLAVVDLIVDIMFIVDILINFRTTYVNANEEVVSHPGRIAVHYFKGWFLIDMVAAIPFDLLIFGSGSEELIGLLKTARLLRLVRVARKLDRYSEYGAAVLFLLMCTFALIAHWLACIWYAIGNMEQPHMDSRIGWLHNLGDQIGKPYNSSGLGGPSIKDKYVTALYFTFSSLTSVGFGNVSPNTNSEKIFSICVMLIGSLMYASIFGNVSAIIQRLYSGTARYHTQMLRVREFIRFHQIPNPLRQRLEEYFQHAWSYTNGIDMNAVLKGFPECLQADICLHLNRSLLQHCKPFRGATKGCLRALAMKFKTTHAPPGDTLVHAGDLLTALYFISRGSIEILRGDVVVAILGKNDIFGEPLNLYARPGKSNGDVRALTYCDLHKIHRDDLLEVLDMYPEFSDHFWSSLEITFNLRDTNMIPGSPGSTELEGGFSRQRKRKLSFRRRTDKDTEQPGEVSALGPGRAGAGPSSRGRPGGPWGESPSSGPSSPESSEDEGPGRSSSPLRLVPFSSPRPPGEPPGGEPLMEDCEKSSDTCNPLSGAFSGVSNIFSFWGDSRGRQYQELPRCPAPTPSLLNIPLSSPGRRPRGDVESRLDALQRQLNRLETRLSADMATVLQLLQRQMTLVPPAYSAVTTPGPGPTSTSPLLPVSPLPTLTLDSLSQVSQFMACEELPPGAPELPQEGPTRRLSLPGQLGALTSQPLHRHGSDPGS
Excerpt: (§2) Supplement KCHL_A_2122309_SM6747.docx, table 1 | column: SSI-5; SSI-3; SSI-4; SSI-1

Nicotinic Acetylcholine = assay: Panlabs selection; assay type: binding
Excerpt: Supplement KCHL_A_2122309_SM6747.docx, table 1 | column: SSI-5; SSI-4; SSI-1

Nav1.6 [2] = molecular target: T1, Nav1.6 (Homo sapiens, UniProt Q9UQD0); assay: Nav1.6 binding; design: expressed in transfected cells; host or cells: HEK cells; conditions: read-out: Nav1.6 bind Ki
T1 sequence (Q9UQD0 whole entry): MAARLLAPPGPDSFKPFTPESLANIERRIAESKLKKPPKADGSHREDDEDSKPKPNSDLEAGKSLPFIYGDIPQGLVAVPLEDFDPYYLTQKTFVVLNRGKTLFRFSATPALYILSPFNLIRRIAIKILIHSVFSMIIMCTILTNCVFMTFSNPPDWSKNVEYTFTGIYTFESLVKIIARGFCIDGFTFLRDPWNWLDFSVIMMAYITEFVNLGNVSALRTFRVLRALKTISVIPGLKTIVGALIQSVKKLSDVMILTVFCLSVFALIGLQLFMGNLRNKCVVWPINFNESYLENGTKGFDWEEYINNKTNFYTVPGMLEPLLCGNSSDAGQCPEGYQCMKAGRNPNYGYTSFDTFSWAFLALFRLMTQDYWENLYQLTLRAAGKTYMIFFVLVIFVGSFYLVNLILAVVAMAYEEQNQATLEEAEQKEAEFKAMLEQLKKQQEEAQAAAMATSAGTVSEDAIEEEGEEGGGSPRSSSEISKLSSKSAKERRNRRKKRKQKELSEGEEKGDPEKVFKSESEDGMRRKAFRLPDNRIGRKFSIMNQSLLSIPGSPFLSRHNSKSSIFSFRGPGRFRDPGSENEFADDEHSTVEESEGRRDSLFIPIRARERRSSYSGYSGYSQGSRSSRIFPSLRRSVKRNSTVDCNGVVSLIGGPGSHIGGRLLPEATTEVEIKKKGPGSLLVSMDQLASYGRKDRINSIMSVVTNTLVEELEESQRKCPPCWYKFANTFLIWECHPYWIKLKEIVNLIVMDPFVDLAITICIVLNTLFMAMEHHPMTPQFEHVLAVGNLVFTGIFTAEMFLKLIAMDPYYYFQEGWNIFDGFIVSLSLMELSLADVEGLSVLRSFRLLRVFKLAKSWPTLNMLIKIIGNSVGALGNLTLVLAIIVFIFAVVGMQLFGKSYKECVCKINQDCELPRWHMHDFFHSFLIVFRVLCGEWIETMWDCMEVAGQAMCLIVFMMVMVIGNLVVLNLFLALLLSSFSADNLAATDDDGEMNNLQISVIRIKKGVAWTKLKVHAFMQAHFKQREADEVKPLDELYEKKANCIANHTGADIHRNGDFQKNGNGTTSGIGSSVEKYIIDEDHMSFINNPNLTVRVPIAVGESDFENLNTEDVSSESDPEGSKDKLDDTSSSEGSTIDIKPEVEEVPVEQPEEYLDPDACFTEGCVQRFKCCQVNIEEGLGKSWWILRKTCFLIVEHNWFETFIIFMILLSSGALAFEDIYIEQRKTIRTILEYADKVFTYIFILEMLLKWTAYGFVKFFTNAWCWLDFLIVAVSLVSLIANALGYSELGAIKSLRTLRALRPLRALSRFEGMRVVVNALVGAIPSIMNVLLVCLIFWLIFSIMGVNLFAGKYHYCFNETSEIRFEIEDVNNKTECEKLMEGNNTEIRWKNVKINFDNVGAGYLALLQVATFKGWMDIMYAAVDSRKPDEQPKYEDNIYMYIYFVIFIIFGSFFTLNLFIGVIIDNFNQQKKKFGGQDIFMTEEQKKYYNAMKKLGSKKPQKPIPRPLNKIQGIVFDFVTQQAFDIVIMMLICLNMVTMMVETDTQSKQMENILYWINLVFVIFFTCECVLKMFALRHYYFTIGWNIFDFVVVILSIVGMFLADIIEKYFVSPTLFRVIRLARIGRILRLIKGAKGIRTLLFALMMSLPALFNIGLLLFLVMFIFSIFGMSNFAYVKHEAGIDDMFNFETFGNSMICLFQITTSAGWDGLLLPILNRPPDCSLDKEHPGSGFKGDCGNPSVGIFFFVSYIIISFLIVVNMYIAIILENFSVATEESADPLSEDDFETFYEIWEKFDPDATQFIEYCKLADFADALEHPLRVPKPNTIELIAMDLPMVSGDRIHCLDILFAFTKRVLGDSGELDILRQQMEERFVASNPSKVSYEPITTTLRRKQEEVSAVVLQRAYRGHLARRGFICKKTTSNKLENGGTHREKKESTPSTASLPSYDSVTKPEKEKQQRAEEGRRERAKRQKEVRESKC
Excerpt: as §1

Iks = Iks (Homo sapiens, UniProt P51787); assay: Functional Ion Channel Panel Iks; assay type: biochemical; conditions: read-out: Iks %inh
Excerpt: as §2

[3] = Rat plasma protein binding; assay type: in vitro ADME
Excerpt: as §1

Cav1.2 = Cav1.2 (Homo sapiens, UniProt Q13936); assay: Global Counterscreen Cav1.2
Excerpt: as §1

Nav1.6 [4] = molecular target: T1, Nav1.6; assay: PX Nav1.6 IC50 (supplement); assay type: cell-based; design: expressed in transfected cells; host or cells: HEK cells
Experimental: Sodium currents were recorded from recombinant Human Embryonic Kidney 293 cell lines stably overexpressing the respective sodium channel type (NaV1.2, 1.5, 1.4, 1.6, 1.7). Recording solutions were comprised of the following (in mM): Internal solution: 30 CsCl, 5 HEPES, 10 EGTA, 120 CsF, 5 NaF, 2 MgCl2, pH = 7.3 with CsOH; External solution 1: 40 NaCl, 120 NMDG, 1 KCl, 0.5 MgCl2, 5 HEPES, 2.7 CaCl2, pH to 7.3 with NaOH, used for NaV1.5 recordings; External solution 2: 150 NaCl, 5 KCl, 2 CaCl2, 1 MgCl2, 10 HEPES, 12 Dextrose, pH 7.3 with NaOH, used for NaV1.7, 1.6, 1.4, and 1.2 recordings.
Whole-cell currents were recorded from cells stably expressing NaV channels using the PatchXpress 7000A automated patch clamp platform (Molecular Devices, LLC; Sunnyvale, CA). A portable air-conditioning unit was installed on the PatchXpress instruments to maintain the temperature of the headstage at 21°C. Cells were voltage clamped at −60 mV for cell detection and sealing. At the start of each recording, a voltage curve and an inactivation curve was run for each cell to determine the voltage at which 50% of the channels reside in the inactivated state (V0.5 inact). […]
NaV1.7, NaV1.6, NaV1.4: Compound potency was measured in a hyperpolarized-state protocol where the holding potential for each cell was set to V0.5inact – 20 mV. […]

Adrenergic α1D = molecular target: T2, Adrenergic α1D (Homo sapiens, UniProt P25100); assay: Panlabs selection; assay type: binding
T2 construct: Panlabs
Excerpt: as §2

Adrenergic α2B = molecular target: T3, Adrenergic α2B (Homo sapiens, UniProt P18089); assay: Panlabs selection; assay type: binding
T3 construct: Panlabs
Excerpt: as §2

[5] = molecular target: Transporter, Norepinephrine NET (Homo sapiens, UniProt P23975); assay: Panlabs selection; assay type: binding
Excerpt: as §2

Melanocortin MC5 = molecular target: T4, Melanocortin MC5 (Homo sapiens, UniProt P33032); assay: Panlabs selection; assay type: binding
T4 construct: Panlabs
T4 sequence (P33032 whole entry): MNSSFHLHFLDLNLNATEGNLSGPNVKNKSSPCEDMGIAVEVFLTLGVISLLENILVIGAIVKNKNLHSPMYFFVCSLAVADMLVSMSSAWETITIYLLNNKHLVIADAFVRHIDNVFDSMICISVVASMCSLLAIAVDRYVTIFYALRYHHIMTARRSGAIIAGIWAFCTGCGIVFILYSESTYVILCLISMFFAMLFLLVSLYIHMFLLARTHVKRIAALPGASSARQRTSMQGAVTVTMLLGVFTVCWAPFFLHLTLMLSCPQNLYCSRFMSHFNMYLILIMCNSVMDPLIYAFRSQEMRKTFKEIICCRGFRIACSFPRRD
Excerpt: as §2

Histamine H1 = molecular target: T5, Histamine H1 (Homo sapiens, UniProt P35367); assay: Panlabs selection; assay type: binding
T5 construct: Panlabs
T5 sequence (P35367 whole entry): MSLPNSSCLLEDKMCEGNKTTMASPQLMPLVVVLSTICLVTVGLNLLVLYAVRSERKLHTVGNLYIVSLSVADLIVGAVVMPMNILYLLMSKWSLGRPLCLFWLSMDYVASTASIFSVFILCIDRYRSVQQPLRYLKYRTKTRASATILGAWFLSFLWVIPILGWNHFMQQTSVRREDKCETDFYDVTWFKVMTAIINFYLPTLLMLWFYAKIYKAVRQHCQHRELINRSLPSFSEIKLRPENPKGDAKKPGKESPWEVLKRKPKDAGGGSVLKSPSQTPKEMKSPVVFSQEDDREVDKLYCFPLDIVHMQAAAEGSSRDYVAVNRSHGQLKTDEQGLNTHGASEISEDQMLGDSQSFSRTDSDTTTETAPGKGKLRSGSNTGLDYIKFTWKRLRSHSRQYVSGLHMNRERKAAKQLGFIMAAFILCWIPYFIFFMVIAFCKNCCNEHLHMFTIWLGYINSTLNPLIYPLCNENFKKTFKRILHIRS
Excerpt: as §2

Adrenergic α2A = molecular target: T6, Adrenergic α2A (Homo sapiens, UniProt P08913); assay: Panlabs selection; assay type: binding
T6 construct: Panlabs
Excerpt: as §2

Serotonin 5-HT2B = Serotonin 5-HT2B (Homo sapiens, UniProt P41595); assay: Panlabs selection; assay type: binding
Excerpt: as §2

[6] = molecular target: Transporter, Dopamine DAT (Homo sapiens, UniProt Q01959); assay: Panlabs selection; assay type: binding
Excerpt: as §2

Adrenergic α2C = molecular target: T7, Adrenergic α2C (Homo sapiens, UniProt P18825); assay: Panlabs selection; assay type: binding
T7 construct: Panlabs
Excerpt: as §2

Transporter, Choline = Transporter, Choline (Homo sapiens, UniProt Q9GZV3); assay: Panlabs selection; assay type: binding
Excerpt: as §2

NAChR α3β4 = molecular target: T8, NAChR α3β4 (Homo sapiens, UniProt P30926+P32297); assay: Panlabs selection; assay type: binding
T8 construct: Panlabs

(Homo sapiens, UniProt Q12809), sequence (Q12809 whole entry): as the sequence (Q12809 whole entry) above

SMILES	Ki [1] [µM]	inhibition at 30 µM (hERG) [%]	Ki (Nicotinic Acetylcholine) [µM]	Ki (Nav1.6 [2]) [nM]	inhibition at 30 µM (Iks) [%]	fraction unbound [3]	IC50 (Cav1.2) [µM]	IC50 (Nav1.6 [4]) [µM]	Ki (Adrenergic α1D) [µM]	Ki (Adrenergic α2B) [µM]	Ki [5] [µM]	Ki (Melanocortin MC5) [µM]	Ki (Histamine H1) [µM]	Ki (Adrenergic α2A) [µM]	Ki (Serotonin 5-HT2B) [µM]	Ki [6] [µM]	Ki (Adrenergic α2C) [µM]	Ki (Transporter, Choline) [µM]	Ki (NAChR α3β4) [µM]
O=S(=O)(Nc1nccs1)c1cc(Cl)c(NCCCCNC[C@H]2CCCN2)cc1F [SSCI-1]	> 54	22	> 10	47.1	-1	0.067	> 30	18.2	> 10	> 10	3.93	> 10	> 10	> 10	> 10	0.98	> 10	3.19	> 10
COc1ccc(CCC(c2cccc3c2CNCC3)n2c(=O)oc3cc(S(=O)(=O)Nc4ncns4)c(F)cc32)cc1 (stereo not drawn) [SSCI-6]	17	–	–	0.08	–	0.018	24	0.018 to 0.036	–	–	–	–	–	–	–	–	–	–	–
